# Assay results reported in ChEMBL document CHEMBL2151015, “Discovery of a potent, selective, and orally bioavailable acidic 11β-hydroxysteroid dehydrogenase type 1 (11β-HSD1) inhibitor: discovery of 2-[(3S)-1-[5-(cyclohexylcarbamoyl)-6-propylsulfanylpyridin-2-yl]-3-piperidyl]acetic acid (AZD4017)” (J Med Chem, 2012).
# Assays:
# [1] = Octanol-buffer partition coefficient, log D of the compound after 30 mins by shake flask method at pH 7.4
# [2] = Intrinsic clearance in rat hepatocytes assessed per 10^6 cells
# in vivo = conditions: rat
# [3] = Oral bioavailability in rat; type: ADME, organism-based; conditions: in vivo
# [4] = Fraction unbound in rat plasma after 18 to 19 hrs by equilibrium dialysis; type: ADME, cell-free
# [5] = AUC (0 to t) in po dosed Sprague-Dawley rat measured up to 24 hrs; type: ADME, organism-based; parameters: time < 24 hr, route oral; conditions: plasma
# [6] = Cmax in po dosed Sprague-Dawley rat pre-dosed with ABT administered 2 hrs […] measured up to 24 hrs; type: ADME, organism-based; parameters: route oral; conditions: in vivo
# [7] = Apparent permeability across human Caco2 cells; type: ADME, cell-based; conditions: Caco-2
# [8] = Aqueous solubility of the compound after 24 hrs by LC-UV analysis at pH 7.4; type: physicochemical; conditions: aqueous medium
# [9] = Cmax in po dosed Sprague-Dawley rat measured up to 24 hrs; type: ADME, organism-based; parameters: route oral; conditions: in vivo
# [10] = AUC (0 to t) in po dosed Sprague-Dawley rat pre-dosed with ABT administered 2 hrs […] measured up to 24 hrs; type: ADME, organism-based; parameters: time < 24 hr, route oral; conditions: plasma
# [11] = Clearance in po dosed Sprague-Dawley rat pre-dosed with ABT administered 2 hrs prior to ABT administration measured up to 24 hrs; conditions: in vivo
# [12] = Clearance in po dosed Sprague-Dawley rat measured up to 24 hrs; conditions: in vivo
# [13] = target: 11-beta-hydroxysteroid dehydrogenase 1 (Homo sapiens, UniProt P28845); test: biochemical
# 11-beta-hydroxysteroid dehydrogenase 1, sequence (P28845 whole entry): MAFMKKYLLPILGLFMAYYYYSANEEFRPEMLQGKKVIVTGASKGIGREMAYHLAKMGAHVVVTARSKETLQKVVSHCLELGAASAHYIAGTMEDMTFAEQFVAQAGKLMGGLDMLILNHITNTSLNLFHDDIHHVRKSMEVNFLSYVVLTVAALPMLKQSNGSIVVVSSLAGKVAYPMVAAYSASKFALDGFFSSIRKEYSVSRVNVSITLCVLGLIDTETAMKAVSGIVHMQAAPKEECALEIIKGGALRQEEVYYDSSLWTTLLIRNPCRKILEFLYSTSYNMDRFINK
# Description: Inhibition of N-terminal His6-tagged full length human 11betaHSD1 expressed in baculovirus infected cells using cortisone as substrate after 25 mins by HTRF assay
SMILES,logD at 0.5 h ([1]; octanol/buffer),hepatocyte CLint [2],clearance (in vivo),bioavailability [3],fraction unbound [4],also measured
CCCOc1nc(N2CCC[C@@H](CC(=O)O)C2)ccc1C(=O)NC1CCCCC1,2.8,9 µL/min/1e6 cells,9 mL/min/kg,> 100%,0.006,
CCCNc1nc(N2CCC[C@@H](CC(=O)O)C2)ccc1C(=O)NC1CCCCC1,2.3,7 µL/min/1e6 cells,4 mL/min/kg,72%,0.029,
CCCSc1nc(Oc2ccc(CC(=O)O)cc2)ccc1C(=O)NC1CCCCC1,1.8,< 2 µL/min/1e6 cells,,,0.003,
CCCSc1nc(N2CCC(CC(=O)O)CC2)ccc1C(=O)NC1CCCCC1,2,6 µL/min/1e6 cells,4 mL/min/kg,90%,0.032,
CCCSc1nc(NC[C@H]2CC[C@H](C(=O)O)CC2)ccc1C(=O)NC1CCCCC1,2.6,8 µL/min/1e6 cells,8 mL/min/kg,81%,0.015,
CCCSc1nc(N2CCC[C@H](CC(=O)O)C2)ccc1C(=O)NC1CCCCC1,2.2,8 µL/min/1e6 cells,1 mL/min/kg,79%,0.006,
CCCSc1nc(Oc2cccc(CCC(=O)O)c2)ccc1C(=O)NC1CCCCC1,1.7,15 µL/min/1e6 cells,,,0.006,
CCCN(C)c1nc(N2CCC[C@@H](CC(=O)O)C2)ccc1C(=O)NC1CCCCC1,,12 µL/min/1e6 cells,15 mL/min/kg,39%,0.018,logD at 0.5 h ([1]; octanol/water): 2.3
O=S(=O)(Cc1c(F)cccc1F)N1CCN(c2ncccc2C(F)(F)F)CC1,3.9,272 µL/min/1e6 cells,,0%,0.005,Papp [7]: 10 ×10⁻⁶ cm/s; CL/F [11]: 14 mL/min/kg; solubility at 24 h [8]: 2 µM; CL/F at 24 h [12]: 20 mL/min/kg
CCCSc1nc(N[C@H]2CC[C@H](C(=O)O)CC2)ccc1C(=O)NC1CCCCC1,,< 2 µL/min/1e6 cells,6 mL/min/kg,> 100%,0.029,
CCCCc1nc(N2CCC[C@@H](CC(=O)O)C2)ccc1C(=O)NC1CCCCC1,1.6,< 2 µL/min/1e6 cells,4 mL/min/kg,57%,0.06,

# Second part, led by results:
logD at 0.5 h ([1]; octanol/buffer),hepatocyte CLint [2],clearance (in vivo),bioavailability [3],fraction unbound [4],SMILES,also measured
2.3,49 µL/min/1e6 cells,110 mL/min/kg,11%,> 0.5,CCCSc1ncccc1C(=O)N[C@@H]1[C@@H]2CC3C[C@H]1C[C@@](O)(C3)C2,
2,120 µL/min/1e6 cells,39 mL/min/kg,0%,0.13,CCCSc1ncccc1C(=O)N1CCCC1c1ccncc1 (stereo not given),
1.6,90 µL/min/1e6 cells,46 mL/min/kg,0%,0.49,CCCSc1ncccc1C(=O)N(C)C1CCOCC1,
,< 2 µL/min/1e6 cells,8 mL/min/kg,> 100%,0.03,CCCSc1nc(N2CCC(C(=O)O)CC2)ccc1C(=O)NC1CCCCC1,logD at 0.5 h ([1]; octanol/water): 1.6
,130 µL/min/1e6 cells,30 mL/min/kg,0%,0.29,CCCSc1ncccc1C(=O)NC1CCC(F)(F)CC1,
3.2,,,0%,0.13,CCCSc1ncccc1C(=O)NC1CCCCC1,AUC(0-t) at 24 h [5]: 80 ng·h/mL; Cmax [6]: 514 ng/mL; Papp [7]: 27 ×10⁻⁶ cm/s; solubility at 24 h [8]: 82 µM; Cmax [9]: 39 ng/mL; AUC(0-t) at 24 h [10]: 2510 ng·h/mL
1.7,6 µL/min/1e6 cells,4 mL/min/kg,45%,0.023,CCCSc1nc(N2CCCC(C(=O)O)C2)ccc1C(=O)NC1CCCCC1 (stereo not given),
3.4,> 350 µL/min/1e6 cells,48 mL/min/kg,0%,0.1,CCCSc1ncccc1C(=O)N(C)C1CCCCC1,
,140 µL/min/1e6 cells,24 mL/min/kg,0%,0.2,CCCSc1ncccc1C(=O)N(C)[C@@H]1[C@@H]2CC3C[C@H]1C[C@@](O)(C3)C2,logD at 0.5 h ([1]; octanol/water): 2.5
,140 µL/min/1e6 cells,,,0.41,CCCSc1ncccc1C(=O)N(C)[C@H]1[C@@H]2CC3C[C@H]1C[C@@](O)(C3)C2,logD at 0.5 h ([1]; octanol/water): 2.5
< 0.5,< 2 µL/min/1e6 cells,2.5 mL/min/kg,81%,0.41,CCCSc1ncccc1C(=O)N[C@H]1CC[C@@H](C(=O)O)CC1,IC50 [13]: > 30 µM
1.4,10 µL/min/1e6 cells,12 mL/min/kg,> 100%,0.019,CCCSc1nc(N2CCCCC2C(=O)O)ccc1C(=O)NC1CCCCC1 (stereo not given),
